Experimental data published in US11377451B2, “Compositions and methods for treating cancer” (The Regents of the University of California, priority 2019, dated 2022).
Where two headings read alike, the source gives them in different places. Values belong to the compound of their own block, whether it stands above or below them.

What was measured:
[1] = Pharmacokinetic / brain penetration studies in mice; assay type: in vivo
Description: Pharmacokinetic studies were performed on male CD-1 mice aged 8-10 weeks. Mice were dosed as indicated in duplicates. At the time points, whole blood was obtained by retro-orbital bleeding and brain tissue was harvested. Blood samples were centrifuged to obtain plasma and brain tissue was washed and homogenized. Samples were extracted with acetonitrile and supernatant was dried using a speed-vac. Dried samples were solubilized in 50:50:0.1 acetonitrile:water:formic acid and quantified on an Agilent 6400 series Triple Quadrupole LC/MS.
Disclosed in table 5 Brain to plasma percentages and unbound ratios of drugs in brain to plasma of indicated drugs in non-tumor bearing mice

HK301 = assay: GI50 assay (Cell Titer Glo proliferation, 3 days); assay type: cell-based, human; conditions: Homo sapiens, 72 h
[2] = Protein binding (fraction unbound in blood and brain)
gliomas = conditions: cited from earlier work
[3] = system: BIM, PUMA; PI3K-AKT-mTOR signaling; assay: Immunoblotting; assay type: cell-based, human
Description: Cells were collected and lysed in RIPA buffer (Boston BioProducts) containing Halt Protease and Phosphatase Inhibitor (Thermo Fischer Scientific). Lysates were centrifuged at 14,000×g for 15 min at 4° C. […] Membranes were developed using the SuperSignal system (Thermo Fischer Scientific).

[4] = cited from earlier work
[5] = system: patient-derived GBM gliomaspheres; assay: 18F-FDG uptake assay; assay type: cell-based, human; conditions: 4 hours
Description: Cells were plated at 5×10^4 cells/ml and treated with designated drugs for indicated time points. Following appropriate treatment, cells were collected and resuspended in glucose-free DMEM/F12 (USBiological) containing ^18F-FDG (radioactivity 1 μCi/mL). Cells were incubated at 37° C. for 1 hr and then washed three times with ice cold PBS. Radioactivity of each sample was then measured using a gamma counter.

[6] = system: patient-derived GBM gliomaspheres; assay: Annexin V apoptosis assay; assay type: cell-based, human; conditions: for apoptosis (annexin V staining): 72 hours of erlotinib exposure, 1 μM
Description: Cells were collected and analyzed for Annexin V and PI staining according to manufacturer's protocol (BD Biosciences). Briefly, cells were plated at 5×10^4 cells/ml and treated with appropriate drugs. Following indicated time points, cells were collected, trypsinized, washed with PBS, and stained with Annexin V and PI for 15 minutes. Samples were then analyzed using the BD LSRII flow cytometer.
Annexin V staining was measured following 72 hrs of treatment. Using the Chalice software, the response of the combination was compared to its single agents. The combinatorial effects were calculated using the synergy score.

[7] = system: GBM39 and HK393 intracranial xenografts; assay: Intracranial delayed 18F-FDG PET/CT mouse imaging; assay type: in vivo, mice
Description: Following 1 hr unconscious uptake, mice were taken off anesthesia but kept warm for another 5 hr of uptake. 6 hr after the initial administration of ^18F-FDG, mice were imaged using G8 PET/CT scanner (Sofie Biosciences). Per above, quantification was performed by drawing 3D regions of interest (ROI) using the AMIDE software.

p53 = assay: Immunohistochemistry of p53 in orthotopic tumor-bearing mice; assay type: in vivo; conditions: 50 mg/kg, 36 hours
Description: Immunohistochemistry was performed on 4 μm sections that were cut from FFPE (formalin-fixed, paraffin-embedded) blocks. Sections were then deparaffinised with xylene and rehydrated through graded ethanol. […] Tissue sections were then treated with 3% hydrogen peroxide (LOT 161509; Fisher Chemical) and with Background Sniper (Biocare Medical, Concord, Calif., USA) to reduce nonspecific background staining. Primary antibody for p53 (Cell Signaling, 2527) was applied in a 1:150 dilution for 80 min followed by detection with the MACH 3 Rabbit HRP-Polymer Detection kit (Biocare Medical). Visualization was achieved using VECTOR NovaRED (SK-4800; Vector Laboratories, Inc.) as chromogen. Lastly, sections were counterstained with Tacha's Automated Hematoxylin (Biocare Medical).

[8] = Idasanutlin brain and plasma concentrations by mass spectrometry; assay type: in vivo; conditions: male, CD-1, mouse, mice with an intact blood-brain-barrier, 50 mg/kg oral gavage
Description: Male CD-1 mice (6-8 weeks old) were treated with 50 mg/kg Idasanutlin in duplicate through oral gavage. At 0.5, 1, 2, 4, 6, 8, 12, and 24 hr after administration, mice were sacrificed, blood was harvested by retro-orbital bleeding, and brain tissue was collected. Whole blood from mice was centrifuged to isolate plasma. Idasanutlin was isolated by liquid-liquid extraction from plasma: 50 μL plasma was added to 2 μL internal standard and 100 μL acetonitrile. Mouse brain tissue was washed with 2 mL cold PBS and homogenized using a tissue homogenizer with fresh 2 mL cold PBS. Idasanutlin was then isolated and reconstituted in a similar manner by liquid-liquid extraction: 100 μL brain homogenate was added to 2 μL internal standard and 200 μL acetonitrile. After vortex mixing, the samples was centrifuged. The supernatant was removed and evaporated by a rotary evaporator and reconstituted in 100 μL 50:50 water: acetonitrile.
Chromatographic separations were performed on a 100×2.1 mm Phenomenex Kinetex C18 column (Kinetex) using the 1290 Infinity LC system (Agilent). The mobile phase was composed of solvent A: 0.1% formic acid in Milli-Q water, and B: 0.1% formic acid in acetonitrile. […] Analyte signal was normalized to the internal standard and concentrations were determined by comparison to the calibration curve (0.5, 5, 50, 250, 500, 2000 nM). […]

EGFR = target: T1, EGFR (Homo sapiens, UniProt P00533); assay: Cell Free EGFR Kinase Assay (ADP-Glo); assay type: biochemical; conditions: FIG. 3
T1 construct: purchased Promega V3831
Description: The Cell Free EGFR Kinase Assay was performed using the EGFR Kinase System (Promega #V3831). […] The ADP-Glo Kinase Assay (Promega #V6930) was used to measure EGFR activity in the presence of inhibitors.

GBM39 = assay: GI50 assay (Cell Titer Glo proliferation, 3 days); assay type: cell-based, human; conditions: Homo sapiens, 72 h; GBM39, 3 days
[9] = system: patient-derived GBM gliomaspheres; assay: Dynamic BH3 profiling (apoptotic priming, cytochrome c release); assay type: cell-based, human; conditions: HK393 and HK254 (EGFRi non-responders), 24 hours
Description: GBM gliomaspheres were first disassociated to single-cell suspensions with TrypLE (Gibco) and resuspended in MEB buffer (150 mM Mannitol 10 mM HEPES-KOH, 50 mM KCl, 0.02 mM EGTA, 0.02 mM EDTA, 0.1% BSA, 5 mM Succinate). 50 μl of cell suspension (3×10^4 cells/well) were plated in wells holding 50 μL MEB buffer containing 0.002% digitonin and indicated peptides in 96-well plates. Plates were then incubated at 25° C. for 50 min. […] Samples were stained overnight with 20 μL of staining solution (10% BSA, 2% Tween 20 in PBS) containing DAPI and anti-cytochrome c (BioLegend). The following day, cytochrome c release was quantified using BD LSRII flow cytometer. […] Delta priming refers to the difference in amount of cytochrome c release between vehicle treated cells and drug treated cells.

[10] = male, CD-1, mouse, Table 4, unbound partition coefficient of the brain and plasma, at equilibrium
[11] = higher dose: Erlotinib 1500 (weekly), Gefitinib 750-1000

T1 sequence (P00533 25-1210): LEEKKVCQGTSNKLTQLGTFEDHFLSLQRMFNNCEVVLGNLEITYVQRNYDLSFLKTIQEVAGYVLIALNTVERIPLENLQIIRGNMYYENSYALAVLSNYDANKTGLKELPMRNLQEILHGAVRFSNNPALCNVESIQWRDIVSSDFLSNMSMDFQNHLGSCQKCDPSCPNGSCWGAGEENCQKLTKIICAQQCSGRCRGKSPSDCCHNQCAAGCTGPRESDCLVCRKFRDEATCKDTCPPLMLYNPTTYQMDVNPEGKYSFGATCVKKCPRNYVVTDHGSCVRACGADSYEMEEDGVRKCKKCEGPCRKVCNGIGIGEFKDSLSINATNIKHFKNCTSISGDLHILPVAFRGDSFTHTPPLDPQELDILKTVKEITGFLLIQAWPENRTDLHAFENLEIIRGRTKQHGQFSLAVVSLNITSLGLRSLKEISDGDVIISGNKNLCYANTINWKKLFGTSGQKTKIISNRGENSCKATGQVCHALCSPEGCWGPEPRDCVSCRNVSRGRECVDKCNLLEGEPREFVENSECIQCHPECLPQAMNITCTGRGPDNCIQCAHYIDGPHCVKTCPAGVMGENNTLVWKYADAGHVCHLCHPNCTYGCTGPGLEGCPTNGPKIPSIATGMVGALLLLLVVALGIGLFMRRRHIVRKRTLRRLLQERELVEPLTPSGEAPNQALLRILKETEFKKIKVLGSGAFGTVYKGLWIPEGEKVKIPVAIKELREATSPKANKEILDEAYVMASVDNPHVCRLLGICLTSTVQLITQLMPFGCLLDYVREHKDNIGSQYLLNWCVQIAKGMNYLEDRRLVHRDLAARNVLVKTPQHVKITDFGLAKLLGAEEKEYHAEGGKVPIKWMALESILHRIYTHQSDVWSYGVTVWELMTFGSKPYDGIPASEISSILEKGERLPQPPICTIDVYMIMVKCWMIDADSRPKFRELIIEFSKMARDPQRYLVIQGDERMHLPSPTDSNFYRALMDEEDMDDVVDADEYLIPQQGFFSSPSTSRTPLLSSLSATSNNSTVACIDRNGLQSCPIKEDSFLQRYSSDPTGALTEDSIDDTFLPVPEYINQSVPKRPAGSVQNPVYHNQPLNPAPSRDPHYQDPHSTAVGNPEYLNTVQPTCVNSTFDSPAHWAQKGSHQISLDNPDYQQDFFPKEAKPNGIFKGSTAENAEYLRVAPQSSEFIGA

fraction unbound (in vitro; Fu (blood)): 0.052 | fraction unbound (in vitro; Fu (brain)): 0.0144 | Kp uu [1, 10]: 0.802
Compound: COc1cc2ncnc(Nc3cccc(Cl)c3F)c2cc1OC(=O)N1CCN(C)C[C@H]1C [AZD3759]

Bound (blood) ([2]; blood): 95.12% | fraction unbound ([2]; blood, Fu (blood)): 0.0488 | Bound (brain) ([2]; brain): 97.07% | fraction unbound ([2]; brain, Fu (brain)): 0.0293 | Kpuu (Avg) ([1]; Table 4, unbound partition coefficient of the brain and plasma, at equilibrium): 0.0513 | Kpuu (Avg) ([1]; Table 5, unbound ratios of drugs in brain to plasma, non-tumor bearing mice): 0.051
Compound: C#Cc1cccc(Nc2ncnc3cc(OCCOC)c(OCCOC)cc23)c1 [Erlotinib, erlotinib]
GI50 (HK301; read-out: HK301 GI50 (nM)): 642 nM | response rates against gliomas (gliomas): ≤ 25% | expression of pro-apoptotic BH3-only proteins BIM and PUMA ([3]; only in the metabolic responder cultures, acute erlotinib treatment): promoted the expression | CSF ([4]; Daily Dose: Afatinib 50, Alectinib 1200, Crizotinib 500, Erlotinib 150, Gefitinib 250, Lapatinib 1250): 28.7 ± 16.8 ng/mL | Plasma ([4]; Daily Dose: Afatinib 50, Crizotinib 500, Erlotinib 150, Gefitinib 250, Lapatinib 1250): 1140 ± 937 ng/mL | CSF [4, 11]: 51.1 ng/mL | Plasma [4, 11]: 4445.9 ng/mL | radio-labeled glucose uptake (18F-FDG) ([5]; metabolic responder GBMs, erlotinib 1 μM): significantly attenuated | apoptosis (annexin V staining) ([6]; metabolic responders): ~17% | apoptosis (annexin V staining) ([6]; non-responders): ~3% | 18F-FDG uptake (PET) ([7]; GBM39 orthotopic xenografts, erlotinib 75 mg/kg, 15 hours post administration): rapidly reduced | 18F-FDG uptake (PET) ([7]; HK393 orthotopic xenografts (non-metabolic responder), acute EGFRi): no changes

Bound (blood) ([2]; blood): 98.88% | fraction unbound ([2]; blood, Fu (blood)): 0.0112 | Bound (brain) ([2]; brain): 98.90% | fraction unbound ([2]; brain, Fu (brain)): 0.011 | IC50 (EGFR): ~0.008 µM | Kp ([1]; male, CD-1, mouse, brain / plasma, non-tumor bearing mice): 1.06 | Kp uu [1, 10]: 1.04
Compound: Fc1c(Cl)cccc1Nc1ncnc2cc3c(cc12)OCCO3 [JGK010]
GI50 (HK301; HK301, 3 days, read-out: HK301 GI50): 780 nM | GI50 (GBM39): 2.59 µM

The next lines start with the compound.

Compound: COc1cc(C(=O)O)ccc1NC(=O)[C@@H]1N[C@@H](CC(C)(C)C)[C@](C#N)(c2ccc(Cl)cc2F)[C@H]1c1cccc(Cl)c1F [Idasanutlin]
p53 stabilization in tumor (p53): stabilizes p53 | Kp [8]: 0.35

Compound: CS(=O)(=O)N1CCN(Cc2cc3nc(-c4cccc5[nH]ncc45)nc(N4CCOCC4)c3s2)CC1 [pictilisib]
PI3K-AKT-mTOR signaling ([3]; HK254 and HK393, 4 hours): abrogated PI3K-AKT-mTOR signaling | 18F-FDG uptake ([5]; HK393 and HK254 (EGFRi non-responders), pictilisib 1 μM): significantly reduced | apoptotic priming [9]: significantly higher apoptotic priming | lethality in combination with nutlin [6]: significant, p53-dependent synergistic lethality
